This is an account of results in a melting point compilation (Tetko et al.).

In general, melting point refers to the temperature, or range, at which the solid turns liquid. As for `COC(=O)c1ccc(C)c([N+](=O)[O-])c1`, the melting point came out at 51 °C.
Turning to `CCCCCC(C=O)=Cc1ccccc1`, the melting point was 80 °C.
To `Cc1cc(S(=O)(=O)Cc2ccc(N)cc2)c(C)cc1Cl` belongs 156 to 158 °C; to `Oc1ccccc1C1Nn2c(COc3ccccc3)nnc2S1` (stereo unspecified), 217 °C.
Consider `O=C(Nc1ccc(Br)cc1Br)C(F)(F)C(F)(F)C(F)(F)C(F)(F)C(F)(F)C(F)(F)C(F)(F)C(F)(F)F`, for which the melting point worked out at 95 °C.
As for `CCCCNC(=O)OCC#CI`, the melting point worked out at 66 °C.
`CCOC(=O)c1sc(SCc2ccccc2)c2c1CC(C)(C)CC2=O` registered a melting point of 119 to 122 °C.
Turning to `C=C=C`, the melting point was -136 °C.
To `COc1cc(Cl)c(Cl)c(Cl)c1OC` belongs 66 °C; to `Clc1cc(Cl)c(I)cc1Cl`, 104 °C; to `BrC(c1ccccc1)c1ccccc1`, 45 °C.
In the case of `CCCCCCCCCCCCCCCCCCCCCC(=O)OCC`, the melting point came to 50 °C.
In turn, `Cc1cccc(Br)c1[N+](=O)[O-]` gave a melting point of 26 to 30 °C.
`Nc1ccccc1OC1CCOCC1` gave a melting point of 58 to 61 °C.
To `FC(F)(F)c1ccc2c(c1)Nc1ccccc1S2` belongs 189 °C; to `O=C(O)c1ccc(-c2ccco2)cc1`, 231 to 232 °C; to `CC(=O)OC1OC(COC(=O)c2ccccc2)C(OC(=O)c2ccccc2)C1OC(=O)c1ccccc1` (stereo unspecified), 128 to 130 °C.
Regarding `CNc1ccc(NCCO)c2c1C(=O)c1ccccc1C2=O`, the melting point stood at 187 °C.
The compound `CCOC(=O)C(C)(C)C1=CCC2(C)C(CCC3C2CCC2(C)C(OCc4ccccc4)CCC32)C1` (stereo unspecified) gave a melting point of 138 °C.
To `CCOC(O)=C1C=NC2=C(CNN2C)C1=O` belongs 139 °C; to `c1ccc(-c2cccc(-c3ccccc3)c2)cc1`, 87 °C.
To `CC1c2ccccc2-c2ccccc21` belongs 46.5 °C; to `Cc1ccc(S(=O)(=O)NCCNS(=O)(=O)c2ccc(C)cc2)cc1`, 160 °C; to `O=C(/C=C/c1ccco1)c1ccc(O)cc1`, 163 °C.
To `CCN(CC)C(C)O` (stereo unspecified) belongs -70 °C; to `O=[N+]([O-])c1ccc(C=Cc2ccc([N+](=O)[O-])cc2)cc1`, 183 °C.
As to `COC(OC)(C(=O)c1ccccc1)c1ccccc1`, the melting point was found to be 66 °C.
To `O=S(=O)(Cl)c1cc(F)c(Br)cc1F` belongs 35 °C; to `NC(=O)c1cccc(C(F)(F)F)c1F`, 96 °C; to `CN(C)c1ccc(C=C2C3=C(CCCC3)OC3=C2CCCC3)cc1`, 164 °C.
In turn, `C=CC1CN2CCC1CC2C(O)c1ccnc2ccc(O)cc12` (stereo unspecified) gave a melting point of 202 °C.
To `CC(=O)NC(C)=O` belongs 79 °C; to `Cn1c(S)nnc1CNC(=O)OC(C)(C)C`, 168 to 169 °C; to `CC(=O)c1ccc(-c2c(Cl)cc(Cl)cc2Cl)o1`, 108 °C.
To `Cn1cnc(S(=O)(=O)Cl)c1` belongs 85 to 90 °C; to `C=C1C(=O)C2(C)CCC1C2(C)C` (stereo unspecified), 45 °C.
To `O=C1c2ccccc2OC(CCCl)N1O` (stereo unspecified) belongs 114 to 116 °C; to `Nc1cccc(Oc2ccc(S(=O)(=O)c3ccc(Oc4cccc(N)c4)cc3)cc2)c1`, 132 to 135 °C; to `CN1C(=O)C(=NNc2ccc(Br)cc2)C(=O)N(C)C1=O`, 218 °C.
For the compound `O=[N+]([O-])C(Br)(Br)Br`, the melting point was determined as 10 °C.
Regarding `COc1ccc(-c2n[nH]cc2C=O)cc1`, the melting point lay in the range of 160 to 161 °C.
To `N#Cc1ccc(C(Cl)=Cc2ccc(C=C(Cl)c3ccc(C#N)cc3[N+](=O)[O-])cc2)c([N+](=O)[O-])c1` belongs 296 °C; to `CC1CCC(C)(COC(=S)Nc2ccccc2)C1(C)C` (stereo unspecified), 101 °C.
To `CC12CCC(C3(CCC(=O)O3)C1=O)C2(C)C` (stereo unspecified) belongs 207 °C.
Compound `OCc1cccc(Cn2cncn2)c1` gave a melting point of 56 to 59 °C.
For `ClC(Cl)=CBr`, the melting point is -88.5 °C.
The compound `COC(=O)c1cc2c(=O)oc3ccccc3c2nc1C` yielded a melting point of 215 °C.
To `Cc1cc(C(C)(C)C)cc(C)c1O` belongs 82.4 °C; to `CC(C)Oc1cc(N)c(Cl)cc1Cl`, 42 °C.
To `CCOC(=O)c1c(N)sc2c1CCCCC2` belongs 89 to 90 °C; to `BrCOCBr`, -34 °C.
Regarding `CC(C)(C)C(O)C(Cc1ccc(Cl)cc1Cl)n1cncn1` (stereo unspecified), the melting point was 148 °C.
To `COc1c2c(cc3oc(=O)ccc13)OC(C)(C)C=C2` belongs 133 °C.
`CCC(=O)c1ccc[nH]1` registered a melting point of 50 °C.
Compound `O=[N+]([O-])c1ccc(Cl)c(N=C=S)c1` registered a melting point of 67 to 70 °C.
`O=C(O)Cc1ccc(CBr)cc1`: the melting point was 179 °C.
For the compound `CC(=O)Nc1cc([N+](=O)[O-])c(F)cc1F`, the melting point is 146 to 148 °C.
To `O=[N+]([O-])c1ccc(NN=C2c3ccccc3C2Cl)c([N+](=O)[O-])c1` (stereo unspecified) belongs 228 °C; to `CC1=C(c2ccccc2)c2ccccc2/C1=N/NC(N)=O`, 200 to 201 °C; to `CC1(C)NC(=CC(=O)c2ccccc2)C(C)(C)N1O`, 178 to 184 °C.
`CC(=O)Nc1cc(Cl)c(Cl)cc1[N+](=O)[O-]`: the melting point lay in the range of 126 to 128 °C.
Take `COc1ccc(C(=O)Cc2ccccc2)cc1OC`: the melting point was 87 to 88 °C.
For the compound `COC(=O)c1ccc(O)c(OC)c1`, the melting point stood at 64 °C.
Compound `C=C1C(C)C2C(Cc3ccccc3)NC(=O)C23OC(=O)C=CC(=O)CCCC(C)CC=CC3C1O` (stereo unspecified) yielded a melting point of 193 to 195 °C.
To `COc1ccc(CN2CCc3ccccc3C2)cc1O` belongs 129 °C; to `CC1=C(C(=O)OC(C)C)C(c2ccc([N+](=O)[O-])cc2)NC(=S)N1` (stereo unspecified), 75 °C.
The compound `ClCc1c(Cl)c(Cl)c(CCl)c(Cl)c1Cl` yielded a melting point of 174 °C.
To `Cc1noc(-c2ccccc2CO)n1` belongs 91 to 92 °C.
To `O=C(O)/C=C/c1ccc(F)cc1F` belongs 214 to 218 °C; to `Cc1c(F)c(F)c(COC(=O)C2C(C=C(Cl)C(F)(F)F)C2(C)C)c(F)c1F` (stereo unspecified), 44.6 °C.
For `NNC(=O)c1ccc(Cl)c(Cl)c1`, the melting point was 154 to 160 °C.
To `O=C(C1=NOC2C(=O)N(c3cc(Cl)ccc3Cl)C(=O)C12)c1ccccc1` (stereo unspecified) belongs 185 °C.
Take `Cc1cc(C=O)no1`: the melting point was in the range of 31 to 33 °C.
In turn, `Cc1ccc(C(N)CC(=O)O)cc1` (stereo unspecified) registered a melting point of 223 to 227 °C.
In turn, `O=C1CCCCCCCCCCCC1` yielded a melting point of 25 °C.
To `O=C(Nc1ccccc1)Nc1ccccc1` belongs 242 °C.
As to `CCOC(=O)C(C#N)=C(N)c1cc2cc(Br)cc(OC)c2oc1=O`, the melting point lay within 274 to 276 °C.
To `COc1ccc(C=O)cc1F` belongs 35 °C; to `CN1Cc2c(N)cccc2C(c2ccccc2)C1` (stereo unspecified), 179 °C; to `c1ccc2c(c1)ccc1[nH]c3ccccc3c12`, 134 °C.
In turn, `O=c1[nH]c2ccccc2[nH]c1=O` showed a melting point of 300 °C.
Regarding `CC(C)COC(=O)c1ccc(N)cc1`, the melting point was 64.5 °C.
To `CN1C2CCC1CC(O)C2` (stereo unspecified) belongs 109 °C.
Regarding `CCCCOCOCCCC`, the melting point is -58.1 °C.
To `Cc1noc2c1c(=O)n(-c1ccccc1)c1ccccc21` belongs 283 °C; to `COC(=O)c1ccc(CS(=O)(=O)Cl)cc1`, 116 to 117 °C; to `NCCCNc1ncc(C(F)(F)F)cc1Cl`, 60 to 65 °C.
Take `O=C(c1ccccc1)c1ccccc1NC(=O)[C@@H]1CCCN1Cc1ccccc1`: the melting point lay in the range of 100 to 103 °C.
To `CC(C)(C(=O)O)c1ccc(Cl)cc1` belongs 127 °C.
`CCCCCCCc1ccc(C(=O)Oc2ccc(C#N)cc2)cc1` displayed a melting point of 43 to 46 °C.
`COc1c(O)ccc2c1C(=O)N1CCc3cc4c(cc3[C@@H]1C2)OCO4`: the melting point was determined as 209 °C.
To `Cc1c2ccccc2c(C)c2c1ccc1ccccc12` belongs 122 °C; to `C=CCCCCCCCCC`, -49.2 °C.
On to `CC=Cc1cc(OC)c(OC)cc1OC`, for which the melting point was 62.5 °C.
To `O=[N+]([O-])c1cccnc1` belongs 40 °C; to `NC(=O)NNc1ccccc1`, 174 to 176 °C.
`O=C(O)C(F)(F)C(F)(F)C(F)(F)C(F)(F)C(F)(F)C(F)(F)C(F)(F)C(F)(F)C(F)(F)F` came in with a melting point of 87.4 to 88.2 °C.
Turning to `C=CC(C)(O)CCC=C(C)CCC=C(C)C` (stereo unspecified), the melting point was 25 °C.
`NS(=O)(=O)c1cccc(Br)c1`: the melting point lay within 155 to 158 °C.
Turning to `S=C=Nc1ccc(N2CCOCC2)cc1`, the melting point fell in the range of 84 to 85 °C.
As to `COc1cccc(C)c1`, the melting point is -47 °C.
To `CS(=O)(=O)c1ccc(N)c(Cl)c1` belongs 191 to 198 °C; to `C1CCC(C2CCCCC2)CC1`, 3 to 4 °C.
To `CC(CC(=O)O)C(=O)O` (stereo unspecified) belongs 118 °C.
The compound `Cn1nc(O)cc1C(F)(F)F` displayed a melting point of 114 to 115 °C.
Take `Brc1cccc2c(CNCc3cccc4c(Br)cccc34)cccc12`: the melting point was determined as 142 °C.
As to `COc1ccccc1C=N/N=c1/sc(C(C)=O)nn1-c1ccccc1[N+](=O)[O-]`, the melting point stood at 178 °C.
To `NC1(C(=O)O)CC1` belongs 257 °C; to `COc1ccc(C)c(C(=O)O)c1`, 147 °C.
In turn, `Oc1ccc(F)nc1` gave a melting point of 152 °C.
To `O=Cc1ccc(O)c(F)c1` belongs 123 °C.
